Entries after “also recorded” stand apart in the source; their conditions may differ.
What was measured:
MCF-7 cells = assay: RNA-seq differential expression, DL-2 vs. Stimulated; type: cell-based, human; conditions: MCF-7, DL-2 vs. Stimulated (PMA)
Description: RNA-sequencing (RNA seq) data were obtained from human breast cancer cell line MCF-7 with and without DL-2 treatment. A total of 9 samples from […] experimental groups were collected, as follows: • Control (non-stimulated control, Ctrl) (n=3); • Stimulated (PMA stimulated control) (n=3); • DL-2 (treated with DL-2 and stimulated with PMA) (n=3); For the DL-2 treatment group, the MCF-7 cells were exposed to DL-2 first, then stimulated with PMA thereafter. RNA-seq data were generated, fastq data were downloaded to the QIMR Berghofer server, and then archived to the HSM by Scott Wood. Sequence reads were trimmed for adapter sequences using Cutadapt (version 1.9; Martin (2011)) and aligned using STAR (version 2.5.2a; Dobin et al. (2013)) to the GRCh37 assembly with the gene, transcript, and exon features of Ensembl (release 70) gene model. Quality control metrics were computed using RNA-SeQC (version 1.1.8; DeLuca et al. (2012)) and expression was estimated using RSEM (version 1.2.30; Li and Dewey (2011)). In our analysis, we corrected for library size by dividing each sample's gene count by million reads mapped. This procedure is a common approach known as counts per million (CPM). We further corrected for differences in RNA composition using a method proposed by Robinson and Oshlack (2010a) called trimmed mean of M values (TMM). We used the function calcNormFactors( ) from the edgeR package (Robinson, McCarthy, and Smyth (2010b)) to obtain TMM factors and used these to correct for differences in RNA composition. Differential expression (DE) analysis was performed using the R package edgeR (Robinson, McCarthy, and Smyth (2010b)). Note that the inputs for DE analysis are the filtered but not normalised read counts, since edgeR performs normalisation (library size and RNA composition) internally. The […]( ) function was used to fit a quasi-likelihood negative binomial generalised log-linear model to the read counts for each gene. Using the […]( ) function, we conducted gene-wise empirical Bayes quasi-likelihood F-tests for a given contrast. As per the edgeR user's guide, “the quasi-likelihood method is highly recommended for differential expression analyses of bulk RNA-seq data [versus the likelihood ratio test] as it gives stricter error rate control by accounting for the uncertainty in dispersion estimation”.

MDA-MB-231 cells = assay: WST-1 cell proliferation assay, MDA-MB-231; type: cell-based, human; conditions: for inhibition of proliferation: MDA-MB-231, WST-1, 72 hours
Description: MDA-MB-231 cells were seeded at 4×10^3 cells/well into a 96-well flat bottom tissue culture plate in a final volume of 100 ul and left to adhere for 24 hours at 37° C. and 5% CO2. Cells were then treated with inhibitors for 72 hours at a final concentration of 200, 100, 50, 25, 12.5 or 6.25 μM. Following inhibition, media was removed and replaced with 100 μL/well of WST-1 cell proliferation reagent (Sigma-Aldrich, Cat# 11644807001) at 1:10 final dilution. Absorbance was recorded at 450 nm at 1, 2, 3, and 4 hour incubation periods using a microplate spectrophotometer (with 30 sec mix time). Data represent a single independent experiment performed in triplicate, results are graphed as mean +/− standard error (SE).
(A) CT26, 4T1 or MDA-MB-231 Cells were treated with inhibitors for 72 hours. Following inhibition, media was removed and replaced with WST-1 cell proliferation reagent. Absorbance was recorded at 450 nm after 1 hour. Data represent a single independent experiment performed in triplicate. Results are graphed as mean +/− standard error (SE). B) MDA-MB-231 or CT26 cancer cells were treated with vehicle control, DL-2-Batch 1 (original stock), DL-2-Batch 2 (current stock), DL-2-TBAB or linear PDL1. Cells were permeabilised and were probed with the DUOLINK ligation assay. Cover slips were mounted on glass microscope slides with ProLong nucblue glass Antifade reagent (Life Technologies). PDL1Ac and IMPα1 DUOLINK Digital images were analysed using ImageJ software (ImageJ, NIH, Bethesda, MD, USA) and graphs represent the mean DOT Fluorescent Intensity in the nucleus or the cytoplasm compartments with significant differences calculated as per one-way ANOVA comparison. (C) MDA-MB-231 or CT26 cancer cells were treated with vehicle control, DL-2-Batch 1 (Original stock), DL-2-Batch 2 (current stock), DL-2-TBAB or linear PDL1. Cells were permeabilised and were probed with the DUOLINK ligation assay. Cover slips were mounted on glass microscope slides with ProLong nucblue glass Antifade reagent (Life Technologies). PDL1-unmodified and IMPα1 DUOLINK digital images were analysed using ImageJ software (ImageJ, NIH, Bethesda, MD, USA) and graphs represent the mean DOT fluorescent intensity in the nucleus or the cytoplasm compartments with significant differences calculated as per one-way ANOVA comparison.
4T1, CT26 or MDA-MB-231 cancer cell lines were treated with DL-2 or DL-2-D bicyclic inhibitors for 72 hours. Following inhibition, media was removed and replaced with WST-1 cell proliferation reagent. Absorbance was recorded at 450 nm after 1 hour. Data represent a single independent experiment performed in triplicate; results are graphed as mean +/− standard error (SE).
Cells weretreated with inhibitors for 48 hours. Following inhibition, media was removed and replaced with WST-1 cell proliferation reagent. Absorbance was recorded at 450 nm after 1 hour.

With `CCCCCCCCCCCCCC(=O)NC(C)C(=O)NC1CSCc2cc3cc(c2)CSC[C@H](NC(=O)[C@H](Cc2ccccc2)NC(=O)[C@H](C(C)CC)NC(=O)[C@H](Cc2ccccc2)NC(=O)[C@H]([C@@H](C)O)NC(=O)C(CC(C)C)NC1=O)C(=O)N[C@@H](CCCNC(C)=N)C(=O)N[C@@H](CC(C)C)C(=O)N[C@@H](CCCNC(=N)N)C(=O)N[C@@H](CCCCN)C(=O)NCC(=O)N[C@@H](CCCNC(=N)N)C(=O)NC(C(=O)N[C@@H](CCSC)C(=O)NC(CCSC)C(=O)N[C@@H](CC(=O)O)C(=O)NC(C(=O)N[C@@H](CCCCN)C(=O)NC(CCCCN)C(=O)O)C(C)C)CSC3` (mixture of isomers) [DL-2] the “logFC A2M” value (MCF-7 cells) was 1.461, the “logFC AKR1C1” value (MCF-7 cells) was −1.324 and the “logFC ALDH1A3” value (MCF-7 cells) was −0.9248. The “logFC ATP6V0B” value (MCF-7 cells) was 0.647, the “logFC B3GAT3” value (MCF-7 cells) was 0.8186 and the “logFC BSCL2” value (MCF-7 cells) was 0.9849. For the same compound, the “logFC C19orf10” value (MCF-7 cells) was 0.7917, the “logFC CAMSAP2” value (MCF-7 cells) was −0.7468 and the “logFC CD99” value (MCF-7 cells) was 0.6829. For the same compound, the “logFC CDKN2B” value (MCF-7 cells) was −0.5982, the “logFC CHPF” value (MCF-7 cells) was 0.6073 and the “logFC CTNNAL1” value (MCF-7 cells) was −0.5943. The “logFC CTSD” value (MCF-7 cells) was 1.079, the “logFC CXCL12” value (MCF-7 cells) was 1.155 and the “logFC ELF1” value (MCF-7 cells) was −0.7207. For the same compound, the “logFC ENTPD1” value (MCF-7 cells) was 0.8956, the “logFC ETV3” value (MCF-7 cells) was −0.6424 and the “logFC FILIP1L” value (MCF-7 cells) was −0.7563. For the same compound, the “logFC FOXN3” value (MCF-7 cells) was −0.75, the “logFC IFIT2” value (MCF-7 cells) was −1.213 and the “logFC IGFBP2” value (MCF-7 cells) was 0.7385. The “logFC IGFBP4” value (MCF-7 cells) was 0.6164, the “logFC INPP4B” value (MCF-7 cells) was −0.6381 and the “logFC KIAA1324” value (MCF-7 cells) was 0.6324. The “logFC KLHL5” value (MCF-7 cells) was −1.028, the “logFC MANF” value (MCF-7 cells) was 0.8172 and the “logFC MMP9” value (MCF-7 cells) was −1.43. The “logFC MOB1A” value (MCF-7 cells) was −0.6723, the “logFC MUC1” value (MCF-7 cells) was 0.9921 and the “logFC NEDD9” value (MCF-7 cells) was −0.7516. The “logFC NEU1” value (MCF-7 cells) was 0.6165, the “logFC PPIB” value (MCF-7 cells) was 0.8358 and the “logFC PRDX4” value (MCF-7 cells) was 0.6511. For the same compound, the “logFC QKI” value (MCF-7 cells) was −0.8595, the “logFC RAI14” value (MCF-7 cells) was −0.8091 and the “logFC SERPINA3” value (MCF-7 cells) was 1.008. For the same compound, the “logFC SGCG” value (MCF-7 cells) was 1.126, the “logFC SIRT1” value (MCF-7 cells) was −0.7444 and the “logFC SLC7A11” value (MCF-7 cells) was −0.8545. The “logFC STC1” value (MCF-7 cells) was 0.7265, the “logFC TACC1” value (MCF-7 cells) was −0.6077 and the “logFC TAPBP” value (MCF-7 cells) was 0.5968. For the same compound, the “logFC TBC1D5” value (MCF-7 cells) was −0.897, the “logFC TCN1” value (MCF-7 cells) was 2.029 and the “logFC TFF1” value (MCF-7 cells) was 1.253. For the same compound, the “logFC TMED3” value (MCF-7 cells) was 0.6673, the “logFC TXNRD1” value (MCF-7 cells) was −0.7667 and the “logFC ZMYND11” value (MCF-7 cells) was −2.883. The “logFC ZNF267” value (MCF-7 cells) was −0.6577, the inhibition of proliferation (MDA-MB-231 cells) was “able to inhibit proliferation; also recorded: significantly inhibit the proliferation” and the inhibition of proliferation (MDA-MB-231 cells; listed as DL-2-TBMB) was “able to effectively inhibit the proliferation”. For the same compound, the “potency of proliferation inhibition relative to DL-1” value (MDA-MB-231 cells; MDA-MB-231, higher potency than DL-1) was 2-3 fold.

Source: patent US20240117005A1, “NOVEL BICYCLIC PEPTIDES” (THE COUNCIL OF THE QUEENSLAND INSTITUTE OF MEDICAL RESEARCH, priority 2021, published 2024)
